Experimental data as given in patent US20090042905A1, “TRIAZOLE DERIVATIVES AS LIGANDS OF G-PROTEIN COUPLED RECEPTORS” (AETERNA ZENTARIS GmbH, priority 2007, published 2009).
Read-outs that look alike come from different tables or passages of the source.

Legend:
[1] = system: C57BL/6 male mice fed a high-fat diet; assay: Diet-induced obesity (DIO) in mice, subchronic s.c. treatment; format: in vivo, mouse; conditions: for Fat mass / Food efficiency / Lean mass / Σ Fat depots / Body weight gain / Cumulative food intake / Glucose / Insulin: 2 weeks; for Body weight gain / Cumulative food intake: difference day 35 vs day 21; for body weight gain (in words): two weeks of treatment; for Glucose / Insulin: plasma
Method: The effectiveness of selected compounds of the invention, i.e. their subchronic effects, on the energy balance of mice rendered obese by a high-fat diet was investigated.
Adult C57BL/6 male mice were fed ad libitum with either chow or a high-fat diet (60% of the calorie content from fat) for 5 weeks.
C57BL/6 mice fed with a high-fat diet readily develop obesity and represent a widely used model for investigating human obesity.
One-third of the dose was injected in the morning and two-third in the evening.
Body weight and food intake were monitored every day during the experiment. Body composition (lean and fat mass) was assessed using dual energy x-ray absorptiometry (DEXA) on day 0, 13 and 27. Blood was also sampled at sacrifice for the determination of plasma glucose, insulin and triglycerides.

male C57BL/6J mice = assay: Fasting-induced feeding behavior (food intake) of mice; format: in vivo; conditions: oral dose 2 μmol per mouse, 30 min before food
Method: The effectiveness of selected compounds of the invention on fasting-induced feeding behavior of mice was investigated.
The experiments were performed according to Asakawa A et al. (Asakawa A et al., Gut 2003, 52: 947-952) with the following technical details:
Preparation of compounds of the invention: dissolved in dimethylsulfoxide (DMSO) and then diluted in distilled water (i.e. 0.5, 1 and 10% DMSO for 0.5, 1 and 2 μmol/mouse, respectively);
Preparation of reference substance (positive control) sibutramine: dissolved in distilled water;
Control substance (negative vehicle control): 10% DMSO in distilled water (compounds of the invention); distilled water (sibutramine);
Route of administration: p.o.;
Pretreatment time: 30 min before presenting the food to the animals;
Volume of administration: 0.5 ml/mouse;
Animals: male C57BL/6J mice;
Body weight range: 18.3-21.4 g

[2] = 6 mg/kg per day and 24 mg/kg per day
[3] = 20 min, read-out: change of food intake - compounds versus vehicle treated negative control, at 20 min
[4] = 1 h, read-out: change of food intake - compounds versus vehicle treated negative control, at 1 h
[5] = 2 h, read-out: change of food intake - compounds versus vehicle treated negative control, at 2 h
[6] = 4 h, read-out: change of food intake - compounds versus vehicle treated negative control, at 4 h

For CC(C)(N)C(=O)N[C@H](Cc1c[nH]c2ccccc12)c1nnc(CCCc2c[nH]c3ccccc23)n1Cc1ccccc1 [Compound 9, (R)-N-(1-(5-(3-(1H-indol-3-yl)propyl)-4-benzyl-4H-1,2,4-triazol-3-yl)-2-(1H-indol-3-yl)ethyl)-2-amino-2-methylpropanamide], the Fat mass ([1]; 1.5 mg/kg per day s.c.) was 7.9 g, the Food efficiency ([1]; 1.5 mg/kg per day s.c.) was 1.30 mg/kJ and the Lean mass ([1]; 1.5 mg/kg per day s.c.) was 20.2 g. For the same molecule, the “Σ Fat depots” value ([1]; 1.5 mg/kg per day s.c.) was 1137 mg, the Body weight gain ([1]; 1.5 mg/kg per day s.c.) was 1.03 g and the Cumulative food intake ([1]; 1.5 mg/kg per day s.c.) was 793 kJ. The “size of the fat depots (in words)” value [1, 2] was “reduced”, the “body weight gain (in words)” value [1, 2] was “significantly decreased” and the Fat mass ([1]; 6.0 mg/kg per day s.c.) was 5.8 g. The Food efficiency ([1]; 6.0 mg/kg per day s.c.) was 0.25 mg/kJ, the Lean mass ([1]; 6.0 mg/kg per day s.c.) was 21.2 g and the “Σ Fat depots” value ([1]; 6.0 mg/kg per day s.c.) was 791 mg. For the same molecule, the Body weight gain ([1]; 6.0 mg/kg per day s.c.) was 0.20 g, the Cumulative food intake ([1]; 6.0 mg/kg per day s.c.) was 809 kJ and the Fat mass ([1]; 24 mg/kg per day s.c.) was 5.7 g. The Food efficiency ([1]; 24 mg/kg per day s.c.) was -0.68 mg/kJ, the Lean mass ([1]; 24 mg/kg per day s.c.) was 20.5 g and the “Σ Fat depots” value ([1]; 24 mg/kg per day s.c.) was 792 mg. For the same molecule, the Body weight gain ([1]; 24 mg/kg per day s.c.) was -0.54 g, the Cumulative food intake ([1]; 24 mg/kg per day s.c.) was 790 kJ and the Glucose ([1]; 1.5 mg/kg per day s.c.) was 14.9 mmol/L. The Insulin ([1]; 1.5 mg/kg per day s.c.) was 63.8 pmol/L, the Glucose ([1]; 6.0 mg/kg per day s.c.) was 15.6 mmol/L and the Insulin ([1]; 6.0 mg/kg per day s.c.) was 57.4 pmol/L. It also gave a Glucose ([1]; 24 mg/kg per day s.c.) of 13.1 mmol/L and an Insulin ([1]; 24 mg/kg per day s.c.) of 52.0 pmol/L.
Work on COc1ccc(Cn2c(CCc3ccccc3)nnc2[C@@H](Cc2c[nH]c3ccccc23)NC(=O)[C@H]2CCCCN2)cc1 [Compound 49, (R)-N-((R)-1-(4-(4-methoxybenzyl)-5-phenethyl-4H-1,2,4-triazol-3-yl)-2-(1H-indol-3-yl)ethyl)piperidine-2-carboxamide] yielded a change in vivo at 2 µmol/mouse (male C57BL/6J mice; [3]) of -59%, a change in vivo at 2 µmol/mouse (male C57BL/6J mice; [4]) of -48% and a change in vivo at 2 µmol/mouse (male C57BL/6J mice; [5]) of -39%. For the same molecule, the change in vivo at 2 µmol/mouse (male C57BL/6J mice; [6]) was -23%.
COc1ccc(Cn2c(CCc3ccccc3)nnc2[C@@H](Cc2c[nH]c3ccccc23)NC(=O)CN)cc1 [Compound 50, (R)-N-(1-(4-(4-methoxybenzyl)-5-phenethyl-4H-1,2,4-triazol-3-yl)-2-(1H-indol-3-yl)ethyl)-2-aminoacetamide] gave a Fat mass ([1]; 1.5 mg/kg per day s.c.) of 7.6 g, a Food efficiency ([1]; 1.5 mg/kg per day s.c.) of 1.88 mg/kJ and a Lean mass ([1]; 1.5 mg/kg per day s.c.) of 21.3 g. The “Σ Fat depots” value ([1]; 1.5 mg/kg per day s.c.) was 1101 mg, the Body weight gain ([1]; 1.5 mg/kg per day s.c.) was 1.61 g and the Cumulative food intake ([1]; 1.5 mg/kg per day s.c.) was 852 kJ. For the same molecule, the “body weight gain (in words)” value [1, 2] was “significantly decreased”, the Fat mass ([1]; 6.0 mg/kg per day s.c.) was 8.2 g and the Food efficiency ([1]; 6.0 mg/kg per day s.c.) was 1.77 mg/kJ. The Lean mass ([1]; 6.0 mg/kg per day s.c.) was 20.4 g, the “Σ Fat depots” value ([1]; 6.0 mg/kg per day s.c.) was 1192 mg and the Body weight gain ([1]; 6.0 mg/kg per day s.c.) was 1.44 g. The Cumulative food intake ([1]; 6.0 mg/kg per day s.c.) was 813 kJ, the “size of the fat depots (in words)” value ([1]; 24 mg/kg per day) was “reduced” and the Fat mass ([1]; 24 mg/kg per day s.c.) was 6.3 g. For the same molecule, the Food efficiency ([1]; 24 mg/kg per day s.c.) was -0.05 mg/kJ, the Lean mass ([1]; 24 mg/kg per day s.c.) was 20.6 g and the “Σ Fat depots” value ([1]; 24 mg/kg per day s.c.) was 902 mg. It also gave a Body weight gain ([1]; 24 mg/kg per day s.c.) of -0.04 g, a Cumulative food intake ([1]; 24 mg/kg per day s.c.) of 801 kJ and a Glucose ([1]; 1.5 mg/kg per day s.c.) of 15.6 mmol/L. It also gave an Insulin ([1]; 1.5 mg/kg per day s.c.) of 66.3 pmol/L, a Glucose ([1]; 6.0 mg/kg per day s.c.) of 15.2 mmol/L and an Insulin ([1]; 6.0 mg/kg per day s.c.) of 64.8 pmol/L. For the same molecule, the Glucose ([1]; 24 mg/kg per day s.c.) was 15.4 mmol/L, the Insulin ([1]; 24 mg/kg per day s.c.) was 60.3 pmol/L and the change in vivo at 2 µmol/mouse (male C57BL/6J mice; [3]) was -54%. It also gave a change in vivo at 2 µmol/mouse (male C57BL/6J mice; [4]) of -44%, a change in vivo at 2 µmol/mouse (male C57BL/6J mice; [5]) of -44% and a change in vivo at 2 µmol/mouse (male C57BL/6J mice; [6]) of -28%.
For COc1ccc(Cn2c(CCc3ccccc3)nnc2[C@@H](Cc2c[nH]c3ccccc23)NC(=O)C2CCNCC2)c(OC)c1 [Compound 62, (R)-N-(1-(4-(2,4-dimethoxybenzyl)-5-phenethyl-4H-1,2,4-triazol-3-yl)-2-(1H-indol-3-yl)ethyl)piperidine-4-carboxamide], the change in vivo at 2 µmol/mouse (male C57BL/6J mice; [3]) was 56%, the change in vivo at 2 µmol/mouse (male C57BL/6J mice; [4]) was 68% and the change in vivo at 2 µmol/mouse (male C57BL/6J mice; [5]) was 50%. The change in vivo at 2 µmol/mouse (male C57BL/6J mice; [6]) was 26%.
In the case of COc1ccc(Cn2c(CCc3ccccc3)nnc2[C@@H](Cc2c[nH]c3ccccc23)NC(=O)c2cnccn2)c(OC)c1 [Compound 66, (R)-N-(1-(4-(2,4-dimethoxybenzyl)-5-phenethyl-4H-1,2,4-triazol-3-yl)-2-(1H-indol-3-yl)ethyl)pyrazine-2-carboxamide], the change in vivo at 2 µmol/mouse (male C57BL/6J mice; [3]) is reported as -56%, the change in vivo at 2 µmol/mouse (male C57BL/6J mice; [4]) is reported as -40% and the change in vivo at 2 µmol/mouse (male C57BL/6J mice; [5]) is reported as -45%. It also gave a change in vivo at 2 µmol/mouse (male C57BL/6J mice; [6]) of -51%.
With CC(C)(N)C(=O)N[C@H](Cc1c[nH]c2ccccc12)c1nnc(CCc2ccccc2)n1CCc1ccccc1 [Compound 117, (R)-N-(1-(4,5-diphenethyl-4H-1,2,4-triazol-3-yl)-2-(1H-indol-3-yl)ethyl)-2-amino-2-methylpropanamide] the change in vivo at 2 µmol/mouse (male C57BL/6J mice; [3]) was -31%, the change in vivo at 2 µmol/mouse (male C57BL/6J mice; [4]) was -24% and the change in vivo at 2 µmol/mouse (male C57BL/6J mice; [5]) was -11%. The change in vivo at 2 µmol/mouse (male C57BL/6J mice; [6]) was -6%.
CC(C)(N)C(=O)N[C@H](Cc1c[nH]c2ccccc12)c1nnc(Cc2ccccc2)n1Cc1ccc(Cl)c(Cl)c1 [Compound 118, (R)-N-(1-(4-(3,4-dichlorobenzyl)-5-benzyl-4H-1,2,4-triazol-3-yl)-2-(1H-indol-3-yl)ethyl)-2-amino-2-methylpropanamide] showed a change in vivo at 2 µmol/mouse (male C57BL/6J mice; [3]) of -31%, a change in vivo at 2 µmol/mouse (male C57BL/6J mice; [4]) of -30% and a change in vivo at 2 µmol/mouse (male C57BL/6J mice; [5]) of -25%. The change in vivo at 2 µmol/mouse (male C57BL/6J mice; [6]) was -24%.
Molecule CC(C)(N)C(=O)N[C@H](Cc1c[nH]c2ccccc12)c1nnc(CCc2ccccc2)n1Cc1ccc(Cl)c(Cl)c1 [Compound 122, (R)-N-(1-(4-(3,4-dichlorobenzyl)-5-phenethyl-4H-1,2,4-triazol-3-yl)-2-(1H-indol-3-yl)ethyl)-2-amino-2-methylpropanamide] has a change in vivo at 2 µmol/mouse (male C57BL/6J mice; [3]) of -52%, a change in vivo at 2 µmol/mouse (male C57BL/6J mice; [4]) of -42% and a change in vivo at 2 µmol/mouse (male C57BL/6J mice; [5]) of -28%. For the same molecule, the change in vivo at 2 µmol/mouse (male C57BL/6J mice; [6]) was -16%.
O=C(N[C@H](Cc1c[nH]c2ccccc12)c1nnc(CCc2ccccc2)n1-c1ccccc1)C1CCNCC1 [Compound 142, N-((R)-2-(1H-indol-3-yl)-1-(5-phenethyl-4-phenyl-4H-1,2,4-triazol-3-yl)ethyl)piperidine-4-carboxamide] showed a change in vivo at 2 µmol/mouse (male C57BL/6J mice; [3]) of -56%, a change in vivo at 2 µmol/mouse (male C57BL/6J mice; [4]) of -57% and a change in vivo at 2 µmol/mouse (male C57BL/6J mice; [5]) of -55%. The change in vivo at 2 µmol/mouse (male C57BL/6J mice; [6]) was -49%.
Work on COc1ccc(Cn2c(CCc3ccccc3)nnc2[C@@H](Cc2c[nH]c3ccccc23)NC(=O)C(C)(C)N)c(OC)c1 [Compound 179, N-((R)-1-(4-(2,4-dimethoxybenzyl)-5-phenethyl-4H-1,2,4-triazol-3-yl)-2-(1H-indol-3-yl)ethyl)-2-amino-2-methylpropanamide] yielded a change in vivo at 2 µmol/mouse (male C57BL/6J mice; [3]) of -25%, a change in vivo at 2 µmol/mouse (male C57BL/6J mice; [4]) of -39% and a change in vivo at 2 µmol/mouse (male C57BL/6J mice; [5]) of -40%. For the same molecule, the change in vivo at 2 µmol/mouse (male C57BL/6J mice; [6]) was -38%.
Molecule COc1ccc(Cn2c(CCc3c[nH]c4ccccc34)nnc2[C@@H](Cc2c[nH]c3ccccc23)NC(=O)[C@@H]2C=CCN2)cc1 [Compound 190, (2S)-N-((R)-1-(5-(2-(1H-indol-3-yl)ethyl)-4-(4-methoxybenzyl)-4H-1,2,4-triazol-3-yl)-2-(1H-indol-3-yl)ethyl)-2,5-dihydro-1H-pyrrole-2-carboxamide] has a change in vivo at 2 µmol/mouse (male C57BL/6J mice; [3]) of -39%, a change in vivo at 2 µmol/mouse (male C57BL/6J mice; [4]) of -30% and a change in vivo at 2 µmol/mouse (male C57BL/6J mice; [5]) of -33%. It also gave a change in vivo at 2 µmol/mouse (male C57BL/6J mice; [6]) of -30%.
